Data taken from US6737383B1, “Herbicidal oxadiazolidines” (priority 1999, dated 2004).

Tests used:
sugar beet = experiment: Test B pre/postemergence sugar beet; type: in vivo, Beta vulgaris
How it was run: (§1)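 Test chemicals in a non-phytotoxic solvent mixture with surfactant were sprayed preemergence onto planted seeds and postemergence onto plants 2 to 18 cm tall (1- to 4-leaf stage). After twelve to sixteen days in a greenhouse, injury was visually rated against untreated controls from 0 (no effect) to 10 (complete control).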

bedstraw = experiment: Test B pre/postemergence bedstraw; type: in vivo, Galium aparine
How it was run: as §1

crabgrass = experiment: Test B pre/postemergence crabgrass; type: in vivo, Digitaria sanguinalis
How it was run: as §1

corn = experiment: Test B pre/postemergence corn; type: in vivo, Zea mays
How it was run: as §1

blackgrass = experiment: Test B pre/postemergence blackgrass; type: in vivo, Alopecurus myosuroides
How it was run: as §1

pigweed = experiment: Test B pre/postemergence pigweed; type: in vivo, Amaranthus retroflexus
How it was run: as §1

rape = experiment: Test B pre/postemergence rape; type: in vivo, Brassica napus
How it was run: as §1

morningglory = experiment: Test B pre/postemergence morningglory; type: in vivo, Ipomoea hederacea
How it was run: as §1

smallflower flatsedge = experiment: Test B flood test smallflower flatsedge; type: in vivo, Cyperus difformis
How it was run: (§2)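 Read-out is a visual response score from 0 (no effect) to 10 (complete control), assigned by comparison with untreated controls. Treatment was applied at the 2-leaf stage, and plants stayed in the greenhouse for twelve to sixteen days before scoring.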

rice = experiment: Test B flood test rice; type: in vivo, Oryza sativa
How it was run: as §2

surinam grass = experiment: Test B pre/postemergence surinam grass; type: in vivo, Brachiaria decumbens
How it was run: as §1

cocklebur = experiment: Test B pre/postemergence cocklebur; type: in vivo, Xanthium strumarium
How it was run: as §1

giant foxtail = experiment: Test B pre/postemergence giant foxtail; type: in vivo, Setaria faberii
How it was run: as §1

bamyardgrass = experiment: Test B flood test barnyardgrass; type: in vivo, Echinochloa crus-galli
How it was run: as §2

velvetleaf = experiment: Test B pre/postemergence velvetleaf; type: in vivo, Abutilon theophrasti
How it was run: as §1

wild oat = experiment: Test B pre/postemergence wild oat; type: in vivo, Avena fatua
How it was run: as §1

[1] = Postemergence, Rate 250 g/ha, scale 0 to 10, 0 is no effect, 10 is complete control
[2] = Postemergence, Rate 500 g/ha, scale of 0 to 10 where 0 is no effect and 10 is complete control
[3] = Preemergence, Rate 62 g/ha, scale 0 to 10 (0 no effect, 10 complete control)
[4] = Preemergence, Rate 125 g/ha, scale of 0 to 10 where 0 is no effect and 10 is complete control
[5] = Preemergence, Rate 250 g/ha, scale 0 to 10, 0 is no effect, 10 is complete control
[6] = Preemergence, Rate 500 g/ha, scale 0 to 10, 0 is no effect, 10 is complete control
[7] = Rate 62 g/ha, Postemergence, scale of 0 to 10 where 0 is no effect and 10 is complete control
[8] = Postemergence, Rate 125 g/ha, scale 0 to 10, 0 is no effect, 10 is complete control
[9] = Preemergence, Rate 250 g/ha, scale of 0 to 10 where 0 is no effect and 10 is complete control
[10] = Rate 62 g/ha, flood test species, Pre-emergence, visual evaluation after twelve to sixteen days
[11] = Rate 125 g/ha, under heading Pre-emergence, flood test species, visual evaluation after twelve to sixteen days
[12] = Rate 250 g/ha, Pre-emergence, flood-test species, scale 0 to 10, 0 is no effect, 10 is complete control
[13] = Rate 500 g/ha, Pre-emergence, flood test species, scale 0 to 10 (0 no effect, 10 complete control)

CC1CC1Cn1c(=O)on(C(=O)N(c2ccc(F)cc2)C(C)C)c1=O (stereo not drawn) [Compound 402]
10: Bedstraw plant response rating (bedstraw; [6]) | Crabgrass plant response rating (crabgrass; [5]) | Crabgrass plant response rating (crabgrass; [6]) | Blackgrass plant response rating (blackgrass; [6]) | Redroot pigweed plant response rating (pigweed; [6]) | Morningglory plant response rating (morningglory; [2]) | Plant response rating, Giant foxtail (giant foxtail; [3]) | Plant response rating, Giant foxtail (giant foxtail; [4]) | Giant foxtail plant response rating (giant foxtail; [5]) | Giant foxtail plant response rating (giant foxtail; [6]) | Wild oats plant response rating (wild oat; [6])
5: Plant response rating, Crabgrass (crabgrass; [1]) | Plant response rating, Redroot pigweed (pigweed; [1]) | Rape plant response rating (rape; [5]) | B. signalgrass plant response rating (surinam grass; [2]) | Cocklebur plant response rating (cocklebur; [2]) | Plant response rating, Barnyardgrass (0 to 10 scale, 0 is no effect, 10 is complete control) (bamyardgrass; [10]) | Barnyardgrass plant response rating (0 to 10 scale, 0 is no effect, 10 is complete control) (bamyardgrass; [11])
1: Sugarbeets plant response rating (sugar beet; [7]) | Plant response rating, Rape (rape; [4]) | Rape plant response rating (rape; [7]) | Plant response rating, Rice (0 to 10 scale, 0 is no effect, 10 is complete control) (rice; [10]) | Rice plant response rating (0 to 10 scale, 0 is no effect, 10 is complete control) (rice; [11]) | Plant response rating, Cocklebur (cocklebur; [8]) | Plant response rating, Wild oats (wild oat; [3])
4: Redroot pigweed plant response rating (pigweed; [5]) | B. signalgrass plant response rating (surinam grass; [9]) | Plant response rating, Cocklebur (cocklebur; [1]) | Plant response rating, Velvetleaf (velvetleaf; [1]) | Velvetleaf plant response rating (velvetleaf; [2]) | Plant response rating, Wild oats (wild oat; [4])
7: Plant response rating, Bedstraw (bedstraw; [1]) | Plant response rating, Blackgrass (blackgrass; [4]) | Redroot pigweed plant response rating (pigweed; [2])
8: Sugarbeets plant response rating (sugar beet; [6]) | Bedstraw plant response rating (bedstraw; [2]) | Plant response rating, Rape (rape; [1]) | Rape plant response rating (rape; [6]) | Plant response rating, Morningglory (morningglory; [1]) | Plant response rating, Giant foxtail (giant foxtail; [8]) | Giant foxtail plant response rating (giant foxtail; [7]) | Barnyardgrass plant response rating (bamyardgrass; [12]) | Velvetleaf plant response rating (velvetleaf; [6]) | Wild oats plant response rating (wild oat; [5])
2: Plant response rating, Sugarbeets (sugar beet; [1]) | Sugarbeets plant response rating (sugar beet; [2]) | Plant response rating, Bedstraw (bedstraw; [3]) | Plant response rating, Redroot pigweed (pigweed; [4]) | Redroot pigweed plant response rating (pigweed; [7]) | Morningglory plant response rating (morningglory; [5]) | Morningglory plant response rating (morningglory; [6]) | S. Flatsedge plant response rating (smallflower flatsedge; [13]) | Rice plant response rating (rice; [12]) | Rice plant response rating (rice; [13]) | Plant response rating, B. signalgrass (surinam grass; [8]) | Plant response rating, B. signalgrass (surinam grass; [1])
9: Crabgrass plant response rating (crabgrass; [2]) | Plant response rating, Crabgrass (crabgrass; [3]) | Plant response rating, Crabgrass (crabgrass; [4]) | Corn plant response rating (corn; [6]) | Blackgrass plant response rating (blackgrass; [2]) | Blackgrass plant response rating (blackgrass; [9]) | Rape plant response rating (rape; [2]) | B. signalgrass plant response rating (surinam grass; Preemergence, Rate 500 g/ha, scale of 0 to 10 where 0 is no effect and 10 is complete control) | Plant response rating, Giant foxtail (giant foxtail; [1]) | Giant foxtail plant response rating (giant foxtail; [2]) | Barnyardgrass plant response rating (bamyardgrass; [13])
3: Sugarbeets plant response rating (sugar beet; [5]) | Plant response rating, Bedstraw (bedstraw; [8]) | Plant response rating, Bedstraw (bedstraw; [4]) | Bedstraw plant response rating (bedstraw; [7]) | Plant response rating, Crabgrass (crabgrass; [8]) | Crabgrass plant response rating (crabgrass; [7]) | Corn plant response rating (corn; [5]) | Plant response rating, Blackgrass (blackgrass; [3]) | Morningglory plant response rating (morningglory; [7]) | Plant response rating, B. signalgrass (surinam grass; [4]) | Velvetleaf plant response rating (velvetleaf; [5]) | Wild oats plant response rating (wild oat; [2])
0: Plant response rating, Sugarbeets (sugar beet; [3]) | Plant response rating, Sugarbeets (sugar beet; [4]) | Plant response rating, Corn (corn; [8]) | Plant response rating, Corn (corn; [1]) | Corn plant response rating (corn; [2]) | Plant response rating, Corn (corn; [3]) | Plant response rating, Corn (corn; [4]) | Corn plant response rating (corn; [7]) | Plant response rating, Redroot pigweed (pigweed; [3]) | Plant response rating, Rape (rape; [3]) | Plant response rating, Morningglory (morningglory; [3]) | Plant response rating, Morningglory (morningglory; [4]) | Plant response rating, S. Flatsedge (0 to 10 scale, 0 is no effect, 10 is complete control) (smallflower flatsedge; [10]) | S. Flatsedge plant response rating (0 to 10 scale, 0 is no effect, 10 is complete control) (smallflower flatsedge; [11]) | S. Flatsedge plant response rating (smallflower flatsedge; [12]) | Plant response rating, B. signalgrass (surinam grass; [3]) | B. signalgrass plant response rating (surinam grass; [7]) | Plant response rating, Cocklebur (cocklebur; [3]) | Plant response rating, Cocklebur (cocklebur; [4]) | Cocklebur plant response rating (cocklebur; [5]) | Cocklebur plant response rating (cocklebur; [6]) | Cocklebur plant response rating (cocklebur; [7]) | Plant response rating, Velvetleaf (velvetleaf; [3]) | Plant response rating, Velvetleaf (velvetleaf; [4]) | Velvetleaf plant response rating (velvetleaf; [7]) | Wild oats plant response rating (wild oat; [7])
